In patent US9604996B2 (Bayer Pharma Aktiengesellschaft, priority 2013, dated 2017):

These compounds were tested against T1, human adenosine A2b receptor (Homo sapiens, UniProt P29275) (assay: Cellular reporter gene (CRE-luciferase) A2b receptor antagonist assay in recombinant CHO-K1 cells stimulated with NECA). Settings: recombinant CHO-K1 cell line, co-incubation with EC50 concentration of NECA, 3 hours, in some cases means, rounded to two significant digits.
T1 construct: expressed in transfected cells; host or cells: CHO-K1 (Chinese Hamster Ovary) with CRE-luciferase reporter
T1 sequence (P29275 1-332): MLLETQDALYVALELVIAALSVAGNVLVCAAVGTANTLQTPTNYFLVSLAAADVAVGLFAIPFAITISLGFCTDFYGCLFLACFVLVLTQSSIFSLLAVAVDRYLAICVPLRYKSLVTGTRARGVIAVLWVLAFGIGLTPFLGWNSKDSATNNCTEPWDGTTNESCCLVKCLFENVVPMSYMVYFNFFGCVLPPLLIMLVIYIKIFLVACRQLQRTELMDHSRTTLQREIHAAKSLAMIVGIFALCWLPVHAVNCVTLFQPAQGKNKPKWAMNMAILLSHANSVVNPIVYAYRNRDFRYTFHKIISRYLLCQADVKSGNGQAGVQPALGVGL
Type: cell-based
Method in brief: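 CHO-K1 cells expressing human A2b receptor with a CRE-driven firefly luciferase reporter, co-incubated with test compound and NECA at its same-day EC50 concentration. Luminescence read 3 hours after NECA addition.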

SMILES | IC50
CCn1c(=O)c2c(C)c(C(=O)N3CCC(O)CC3)sc2n(CCSC(F)(F)F)c1=O [Example 57, 3-Ethyl-6-[(4-hydroxypiperidin-1-yl)carbonyl]-5-methyl-1-{2-[(trifluoromethyl)sulphanyl]ethyl}thieno[2,3-d]pyrimidine-2,4(1H,3H)-dione] | 0.13 µM
CCCn1c(=O)c2c(C)c(C(=O)N3CCC(O)CC3)sc2n(CCOC(F)(F)F)c1=O [Example 60, 6-[(4-Hydroxypiperidin-1-yl)carbonyl]-5-methyl-3-propyl-1-[2-(trifluoromethoxy)ethyl]thieno[2,3-d]pyrimidine-2,4(1H,3H)-dione] | 0.012 µM
C#CCCn1c(=O)c2c(C)c(C(=O)N3CCC(O)CC3)sc2n(CCC(F)(F)F)c1=O [Example 61, 3-(But-3-yn-1-yl)-6-[(4-hydroxypiperidin-1-yl)carbonyl]-5-methyl-1-(3,3,3-trifluoropropyl)thieno[2,3-d]pyrimidine-2,4(1H,3H)-dione] | 0.017 µM
COCCn1c(=O)c2c(C)c(C(=O)N3CCC(O)CC3)sc2n(CCC(F)(F)F)c1=O [Example 62, 6-[(4-Hydroxypiperidin-1-yl)carbonyl]-3-(2-methoxyethyl)-5-methyl-1-(3,3,3-trifluoropropyl)thieno[2,3-d]pyrimidine-2,4(1H,3H)-dione] | 0.12 µM
Cc1c(C(=O)N2CCC(O)(CO)CC2)sc2c1c(=O)n(CC(F)(F)c1ccccc1)c(=O)n2CCC(F)(F)F [Example 70, 3-(2,2-Difluoro-2-phenylethyl)-6-{[4-hydroxy-4-(hydroxymethyl)piperidin-1-yl]carbonyl}-5-methyl-1-(3,3,3-trifluoropropyl)thieno [2,3-d]pyrimidine-2,4(1H,3H)-dione] | 0.028 µM
COCCn1c(=O)n(CC(F)(F)c2ccccc2)c(=O)c2c(C)c(C(=O)N3CCC(O)(CO)CC3)sc21 [Example 71, 3-(2,2-Difluoro-2-phenylethyl)-6-{[4-hydroxy-4-(hydroxymethyl)piperidin-1-yl]carbonyl}-1-(2-methoxyethyl)-5-methylthieno[2,3-d]pyrimidine-2,4(1H,3H)-dione] | 0.42 µM
CCCn1c(=O)c2c(C)c(C(=O)N3CCC(C)(O)CC3)sc2n(CCC(F)(F)F)c1=O [Example 76, 6-[(4-Hydroxy-4-methylpiperidin-1-yl)carbonyl]-5-methyl-3-propyl-1-(3,3,3-trifluoropropyl)thieno[2,3-d]pyrimidine-2,4(1H,3H)-dione] | 0.027 µM
CCCn1c(=O)c2c(C)c(C(=O)N3CCC(O)(CO)CC3)sc2n(CCC(F)(F)F)c1=O [Example 77, 6-{[4-Hydroxy-4-(hydroxymethyl)piperidin-1-yl]carbonyl}-5-methyl-3-propyl-1-(3,3,3-trifluoropropyl)thieno[2,3-d]pyrimidine-2,4(1H,3H)-dione] | 0.075 µM
CCCn1c(=O)c2c(C)c(C(=O)N3CCC(O)(CO)CC3)sc2n(CCOC(F)(F)F)c1=O [Example 80, 6-{[4-Hydroxy-4-(hydroxymethyl)piperidin-1-yl]carbonyl}-5-methyl-3-propyl-1-[2-(trifluoromethoxy)ethyl]thieno[2,3-d]pyrimidine-2,4(1H,3H)-dione] | 0.027 µM
O=C(c1sc2c(c1C(F)F)c(=O)n(CCc1ccccc1)c(=O)n2CCC(F)(F)F)N1CCC(O)CC1 [Example 84, 5-(Difluoromethyl)-6-[(4-hydroxypiperidin-1-yl)carbonyl]-3-(2-phenylethyl)-1-(3,3,3-trifluoropropyl)thieno[2,3-d]pyrimidine-2,4(1H,3H)-dione] | 0.019 µM
O=C(c1sc2c(c1C(F)F)c(=O)n(CCc1ccccc1)c(=O)n2CCC(F)(F)F)N1CCC(O)(CO)CC1 [Example 86, 5-(Difluoromethyl)-6-{[4-hydroxy-4-(hydroxymethyl)piperidin-1-yl]carbonyl}-3-(2-phenylethyl)-1-(3,3,3-trifluoropropyl)thieno[2,3-d]pyrimidine-2,4(1H,3H)-dione] | 0.012 µM
CCc1c(C(=O)N2CCC(O)CC2)sc2c1c(=O)n(CC)c(=O)n2CCC(F)(F)F [Example 87, 3,5-Diethyl-6-[(4-hydroxypiperidin-1-yl)carbonyl]-1-(3,3,3-trifluoropropyl)thieno[2,3-d]pyrimidine-2,4(1H,3H)-dione] | 0.026 µM

More lines, in order of falling IC50, values ahead:

IC50 | SMILES
0.44 µM | O=C(c1cc2c(=O)n(CCc3ccccc3)c(=O)n(CCC(F)(F)F)c2s1)N1CCC(O)CC1 [Example 90, 6-[(4-Hydroxypiperidin-1-yl)carbonyl]-3-(2-phenylethyl)-1-(3,3,3-trifluoropropyl)thieno[2,3-d]pyrimidine-2,4(1H,3H)-dione]
0.38 µM | C=C(Cn1c(=O)n(CC)c(=O)c2c(C)c(C(=O)N3CCC(O)CC3)sc21)C(F)(F)F [Example 58, 3-Ethyl-6-[(4-hydroxypiperidin-1-yl)carbonyl]-5-methyl-1-[2-(trifluoromethyl)prop-2-en-1-yl]thieno[2,3-d]pyrimidine-2,4(1H,3H)-dione]
0.35 µM | CCCn1c(=O)c2c(C)c(C(=O)N3CCC(O)(CO)CC3)sc2n(CCOC)c1=O [Example 78, 6-{[4-Hydroxy-4-(hydroxymethyl)piperidin-1-yl]carbonyl}-1-(2-methoxyethyl)-5-methyl-3-propylthieno[2,3-d]pyrimidine-2,4(1H,3H)-dione]
0.21 µM | Cc1c(C(=O)N2CCC(O)CC2)sc2c1c(=O)n(CCC1CC1)c(=O)n2CCC(F)(F)F [Example 63, 3-(2-Cyclopropylethyl)-6-[(4-hydroxypiperidin-1-yl)carbonyl]-5-methyl-1-(3,3,3-trifluoropropyl)thieno[2,3-d]pyrimidine-2,4(1H,3H)-dione]
0.06 µM | Cc1c(C(=O)N2CCC(O)(C(F)(F)F)CC2)sc2c1c(=O)n(CCc1ccccc1)c(=O)n2CCC(F)(F)F [Example 69, 6-{[4-Hydroxy-4-(trifluoromethyl)piperidin-1-yl]carbonyl}-5-methyl-3-(2-phenylethyl)-1-(3,3,3-trifluoropropyl)thieno[2,3-d]pyrimidine-2,4(1H,3H)-dione]
0.056 µM | CCn1c(=O)c2c(C(F)(F)F)c(C(=O)N3CCC(O)(CO)CC3)sc2n(CCC(F)(F)F)c1=O [Example 83, 3-Ethyl-6-{[4-hydroxy-4-(hydroxymethyl)piperidin-1-yl]carbonyl}-5-(trifluoromethyl)-1-(3,3,3-trifluoropropyl)thieno[2,3-d]pyrimidine-2,4(1H,3H)-dione]
0.053 µM | CCn1c(=O)c2c(C)c(C(=O)N3CCC(O)C(C)C3)sc2n(CCC(F)(F)F)c1=O (stereo not drawn) [Example 73, 3-Ethyl-6-[(4-hydroxy-3-methylpiperidin-1-yl)carbonyl]-5-methyl-1-(3,3,3-trifluoropropyl)thieno [2,3-d]pyrimidine-2,4(1H,3H)-dione (enantiomer pair 1)]
0.045 µM | Cc1c(C(=O)N2CCC(O)CC2)sc2c1c(=O)n(CC(C)C)c(=O)n2CCC(F)(F)F [Example 64, 6-[(4-Hydroxypiperidin-1-yl)carbonyl]-3-isobutyl-5-methyl-1-(3,3,3-trifluoropropyl)thieno[2,3-d]pyrimidine-2,4(1H,3H)-dione]
0.033 µM | CCn1c(=O)c2c(C)c(C(=O)N3CCC(O)(CO)CC3)sc2n(CCOC(F)(F)F)c1=O [Example 75, 3-Ethyl-6-{[4-hydroxy-4-(hydroxymethyl)piperidin-1-yl]carbonyl}-5-methyl-1-[2-(trifluoromethoxy)ethyl]thieno[2,3-d]pyrimidine-2,4(1H,3H)-dione]
0.023 µM | CCn1c(=O)c2c(C(F)(F)F)c(C(=O)N3CCC(C)(O)CC3)sc2n(CCC(F)(F)F)c1=O [Example 82, 3-Ethyl-6-[(4-hydroxy-4-methylpiperidin-1-yl)carbonyl]-5-(trifluoromethyl)-1-(3,3,3-trifluoropropyl)thieno[2,3-d]pyrimidine-2,4(1H,3H)-dione]
0.02 µM | Cc1c(C(=O)N2CCC(O)(CO)CC2)sc2c1c(=O)n(CCc1ccccc1)c(=O)n2CCC(F)(F)F [Example 68, 6-{[4-Hydroxy-4-(hydroxymethyl)piperidin-1-yl]carbonyl}-5-methyl-3-(2-phenylethyl)-1-(3,3,3-trifluoropropyl)thieno[2,3-d]pyrimidine-2,4(1H,3H)-dione]
0.017 µM | CCn1c(=O)c2c(C)c(C(=O)N3CC4CCCC(C3)C4O)sc2n(CCC(F)(F)F)c1=O (stereo not drawn) [Example 72, 3-Ethyl-6-[(9-hydroxy-3-azabicyclo[3.3.1]non-3-yl)carbonyl]-5-methyl-1-(3,3,3-trifluoropropyl)thieno[2,3-d]pyrimidine-2,4(1H,3H)-dione (α-epimer)]
0.013 µM | Cc1c(C(=O)N2CCC(C)(O)CC2)sc2c1c(=O)n(CCc1ccccc1)c(=O)n2CCC(F)(F)F [Example 67, 6-[(4-Hydroxy-4-methylpiperidin-1-yl)carbonyl]-5-methyl-3-(2-phenylethyl)-1-(3,3,3-trifluoropropyl)thieno[2,3-d]pyrimidine-2,4(1H,3H)-dione]
0.0095 µM | CC1(O)CCN(C(=O)c2sc3c(c2C(F)F)c(=O)n(CCc2ccccc2)c(=O)n3CCC(F)(F)F)CC1 [Example 85, 5-(Difluoromethyl)-6-[(4-hydroxy-4-methylpiperidin-1-yl)carbonyl]-3-(2-phenylethyl)-1-(3,3,3-trifluoropropyl)thieno[2,3-d]pyrimidine-2,4(1H,3H)-dione]
0.008 µM | CCCn1c(=O)c2c(C)c(C(=O)N3CCC(C)(O)CC3)sc2n(CCOC(F)(F)F)c1=O [Example 79, 6-[(4-Hydroxy-4-methylpiperidin-1-yl)carbonyl]-5-methyl-3-propyl-1-[2-(trifluoromethoxy)ethyl]thieno[2,3-d]pyrimidine-2,4(1H,3H)-dione]
